Several values for one entry are separate records, joined by “and”; a condition that tells them apart may be missing. Equal values may be shown once. Entries after “also recorded” stand apart in the source; their conditions may differ.
What was measured:
QseC [1] = target: T1, QseC (Escherichia coli O157:H7, UniProt Q8X524); assay: Binding of tritiated norepinephrine to QseC in liposomes; parameters: species or system E. coli; details: 5 μM tritiated NE
T1 construct: His (C); made in house; host or cells: E. coli (arabinose-induced, pVS155), nickel column purification

QseC [2] = target: T1, QseC; assay: QseC autophosphorylation in liposomes; assay type: biochemical, E. coli
[3] = test system: EHEC virulence genes (ler, eae, flhDC, stx2A); assay type: cell-based, enterohemorrhagic E. coli (EHEC)
EHEC strain 8624 [4] = assay: Western blot of EHEC secreted proteins EspA and EspB; assay type: cell-based, enterohemorrhagic E. coli (EHEC); details: 50 μM epinephrine plus 5 nM or 5 pM LED209
EHEC AE lesion formation = assay: Fluorescein actin staining (FAS) test, AE lesion formation on HeLa cells; assay type: cell-based, enterohemorrhagic E. coli (EHEC)
EHEC strain 8624 [5] = assay type: cell-based, enterohemorrhagic E. coli (EHEC)
[6] = test system: Salmonella typhimurium strain SL1344; assay type: cell-based
F. tularensis strain LVS = assay type: cell-based, Francisella tularensis
EHEC = test system: EHEC; parameters: species or system New Zealand White rabbits; details: rabbit, in vivo
[7] = test system: β1, β2 and β3 adrenergic receptors; assay: Live-cell intracellular cAMP (EPAC-based BRET reporter) in HEK293 cells; parameters: species or system human
[8] = test system: S. typhimurium strain SL1344; parameters: species or system mice (129×1/SvJ); details: mouse, in vivo
sifA virulence gene = assay type: cell-based, Salmonella typhimurium
[9] = test system: F. tularensis SCHU S4 in J774 murine macrophages; assay type: cell-based, Francisella tularensis
[10] = test system: F. tularensis virulence genes; assay type: cell-based, Francisella tularensis
[11] = test system: F. tularensis strain SCHU S4; details: mouse, in vivo
[12] = Toxicology studies in mice; details: 20 mg/kg oral gavage daily for 5 days
[13] = Pharmacokinetic analysis in mice
[14] = test system: bacterial cells (strain MCAmp); assay: Secondary screen with bla::lacZ chromosomal reporter to eliminate toxic compounds and general transcription inhibitors
[15] = CD-1 female mice, 20, 10 and 5 mg/kg IV bolus

T1 sequence (Q8X524 whole entry): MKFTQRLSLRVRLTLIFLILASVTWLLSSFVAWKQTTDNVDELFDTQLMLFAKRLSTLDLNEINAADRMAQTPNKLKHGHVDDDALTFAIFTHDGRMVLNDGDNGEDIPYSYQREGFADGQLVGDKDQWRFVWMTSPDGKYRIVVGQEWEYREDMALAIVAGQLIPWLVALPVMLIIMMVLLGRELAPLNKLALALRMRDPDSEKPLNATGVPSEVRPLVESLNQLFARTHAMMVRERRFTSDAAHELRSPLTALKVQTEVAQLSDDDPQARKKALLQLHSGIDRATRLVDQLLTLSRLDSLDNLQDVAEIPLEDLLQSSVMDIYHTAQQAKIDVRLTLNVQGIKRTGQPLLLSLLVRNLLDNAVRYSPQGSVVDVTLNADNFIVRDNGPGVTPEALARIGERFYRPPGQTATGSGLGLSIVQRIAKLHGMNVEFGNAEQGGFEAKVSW

In the case of CC(=O)Nc1ccc(S(=O)(=O)Nc2ccccc2)cc1, the melting point is reported as 209 to 210 °C.
With O=S(=O)(Nc1ccccc1)c1ccc(NC(=S)Nc2ccccc2)cc1 [LED209, N-phenyl-4-[[(phenylamino)thioxomethyl]amino]benzenesulfonamide] the “binding of norepinephrine to QseC” value (QseC [1]; 5 pM LED209) was “inhibits binding; also recorded: directly antagonized”, the “binding of norepinephrine to QseC” value (QseC [1]; 5 fM LED209) was “does not” and the QseC autophosphorylation (QseC [2]; in response to 50 μM epinephrine, 5 pM LED209) was “inhibited”. The “QseC-dependent virulence gene expression in response to AI-3” value [3] was “inhibited”, the “QseC-dependent virulence gene expression in response to epinephrine” value [3] was “inhibited” and the “expression of the stxAB genes” value [3] was “decreases”. The “trigger the EHEC SOS response” value [3] was “does not”, the “secretion of EspA and EspB” value (EHEC strain 8624 [4]) was “inhibited the secretion” and the “EHEC AE lesion formation on cultured epithelial cells” value (EHEC AE lesion formation; 5 pM) was “abolished”. For the same compound, the “AE lesions (pedestals)” value (EHEC AE lesion formation; 5 μM and 5 pM) was “There are no pedestals”, the EHEC growth (EHEC strain 8624 [5]) was “does not hinder growth; also recorded: does not kill or hinder EHEC growth” and the “S. typhimurium growth in vitro” value [6] was “does not hinder growth; also recorded: did not influence”. For the same compound, the F. tularensis growth (F. tularensis strain LVS) was “does not hinder growth”, the “EHEC colonization of the intestine” value (EHEC) was “modest (and non-statistically significant) reduction” and the “EHEC colonization, colon” value (EHEC; 20 mg/kg) was “only a mild non-statistically significance difference”. The “EHEC colonization, ileum and cecum” value (EHEC; 20 mg/kg) was “no differences between treated and untreated animals”, the “block of activation by β-adrenergic-specific agonists (cAMP generation)” value ([7]; 5 μM with dobutamine, terbutaline or BRL37344) was “nor does it block the activation” and the “activation of β adrenergic receptors (cAMP generation)” value ([7]; 5 μM, no agonist) was “does not activate any of the 3 classes of β adrenergic receptors”. The “interference with adrenergic signaling” value ([7]; live cell-based assays) was “does not interfere with mammalian adrenergic signaling; also recorded: not influence signaling”, the “reduction of S. typhimurium cfus recovered from spleens and livers” value [8] was ~10 fold and the “survival of infected mice 24 hours after infection” value [8] was 80%. The “survival of infected mice up to day 12” value [8] was 20%, the “expression of the sifA virulence gene” value (sifA virulence gene) was “diminished” and the “reduction of F. tularensis SCHU-S4 recovered from macrophages” value [9] was 10 fold. The “expression of F. tularensis virulence genes, including qseC” value [10] was “decreased”, the “deaths of mice treated with LED209 alone” value ([11]; female, C3H HeN, po, 20 mg/kg) was “none of the mice treated with LED209 alone died” and the “survival of infected mice at 175 hours post-infection” value [11] was 60% and 75%. The overt toxicity ([11]; po, 20 mg/kg) was “no overt toxicity”, the “survival of infected mice 9 days post-infection” value ([11]; po, 20 mg/kg) was 80% and the “pathology of duodenum, colon, liver, kidney, spleen and heart sections” value [12] was “did not reveal any observable pathology”. The mice weights ([12]; vs vehicle) was “no significant differences”, the organ weights ([12]; vs vehicle) was “no significant differences in the organ weights” and the AUC versus dose [13, 15] was “increases proportionally with dose”. The linearity of pharmacokinetics [13, 15] was “linear”, the bioavailability ([13]; female, CD-1, mouse, plasma, oral, 20 mg/kg) was ~70% and the “oral bioavailability (in words)” value ([13]; mice) was “orally bioavailable”. The “toxicity against bacterial cells” value [14] was “no toxicity against bacterial cells”.
In the case of Cc1ccc(N(CC2=NCCN2)c2cccc(O)c2)cc1 [phentolamine, reference compound], the “binding of norepinephrine to QseC” value (QseC [1]; 50 μM adrenergic antagonist) is reported as “inhibited; also recorded: antagonizes this binding” and the QseC autophosphorylation (QseC [2]; adrenergic antagonist) is reported as “block QseC autophosphorylation”.
For CC(C)NCC(O)COc1cccc2ccccc12 (centres unmarked) [propranolol, reference compound], the “binding of norepinephrine to QseC” value (QseC [1]; 50 μM adrenergic antagonist) was “has no effect on QseC”.
